{
  "source": "ChEMBL document CHEMBL5725619",
  "about": "“Substituted oxopyridine derivatives” (2018)",
  "test": "Plasma Kallikrein Assay: Test substances are dissolved in dimethyl sulphoxide and serially diluted in dimethyl sulphoxide (3000 μM to 0.0078 μM; resulting final concentrations in the test: 50 μM to 0.00013 μM). 1 μl of the diluted substance solutions is placed into each of the wells of white microtitre plates from Greiner (384 wells). 20 μl of assay buffer (50 mM Tris/HCl pH 7.4; 100 mM sodium chloride solution; 5 mM of calcium chloride solution; 0.1% of bovine serum albumin) and 20 μl of plasma kallikrein from Kordia (0.6 nM in assay buffer) are then added successively. After 15 min of incubation, the enzyme reaction is started by addition of 20 μl of the substrate H-Pro-Phe-Arg-AMC dissolved in assay buffer (10 μM in assay buffer) from Bachem, the mixture is incubated at room temperature (22° C.) for 30 min and fluorescence is then measured (excitation: 360 nm, emission: 460 nm). The measured emissions of the test batches with test substance are compared to those of control batches without test substance (only dimethyl sulphoxide instead of test substance in dimethyl sulphoxide), and IC50 values are calculated from the concentration/activity relationships.",
  "data": [
    {"smiles": "COCCC(C(=O)Nc1cc(F)c(C(N)=O)s1)n1cc(OC)c(-c2cc(Cl)ccc2C#N)cc1=O", "note": "(stereo unspecified)", "values": [
      {"measurement": "IC50", "result": 100, "unit": "nM"}
    ]}
  ]
}
